Experimental data as given in paper PMC3306279, “Evaluation of an Antimicrobial L-Amino Acid Oxidase and Peptide Derivatives from Bothropoides mattogrosensis Pitviper Venom” (PLoS ONE, 2012).
Ends that are not written are not given here.

Tests used:
Assay type in all cases: cell-based
human erythrocytes = assay: Hemolysis assay; details: for haemolysis: even at higher concentrations; for Cytotoxicity, Hemolysis assay: sample 512 µg.mL^−1, 24 h by the footnote (method: 1 h, 37°C), relative to 0.1% triton X-100, OD 540 nm, mean ± S.D., three independent experiments
Procedure: Human heparine-blood was obtained from the Universidade Católica de Brasilia cell collection. Collection was obtained with written informed consent. Heparine blood cells were centrifuged at 800 g for 10 min. The erythrocytes were washed three times and re-suspended in 0.1% PBS, pH 7.4. […] The positive control was 0.1% triton X-100 (Sigma-Aldrich, USA). The samples were then centrifuged at 800 g for 10 min. The optical density at 540 nm of the supernatant was measured. The relative optical density compared to that of the suspension treated with 0.1% triton X-100 defined hemolysis percent.

[1] = system: RAW 264.7 murine macrophage-like cells; assay: Cell cytotoxicity, MTT assay; details: for cell viability: RAW264.7, even at higher concentrations; for Cytotoxicity, MTT assay: RAW264.7 cells, sample 512 µg.mL^−1, 24 h, mean ± S.D., three independent experiments
Procedure: Sterile filtered MTT (3-(4,5-dimethylthiazolyl)-2,5-diphenyl-tetrazoliumbromide; Sigma-Aldrich, USA) solution (5 mg.mL^−1 in PBS) was dark stored at −20°C. RAW 264.7 murine macrophage-like cells, 1×10^5 cells/well was seeded in 96 well plates (TPP, Switzerland), in supplemented DMEM medium (4 mM glutamine, 10% FCS and 100 units.ml^−1 penicillin/streptomycin) containing multiple treatments. Treatments consisted of fractions F-44, F-51, F-68, BmLAO (0–512 µg.mL^−1) and fragments BmLAO-f1, BmLAO-f2 and BmLAO-f3 at different concentrations (0–500 µM). After overnight incubation, 60% of medium was then removed, and 10 µl of the MTT solution was added to each well; the plates were then incubated for 4 h in the presence of 5% CO2 at 37°C. The blue formazan product generated was dissolved by the addition of 100 µl of 100% DMSO (Mallinckrodt Chemical) per well. The plates were then gently swirled for 5 min at room temperature in order to dissolve the precipitate. The absorbance was monitored at 575 nm in a Biotek Powerwave HT microplate spectrophotometer (Bio-Tek Instruments, USA).

[2] = system: Bacillus subtilis (ATCC 6633); assay: MIC determination, broth dilution; details: fragments, first figure of the cell (µM/µg.mL^−1); Mueller-Hinton broth, 37°C, 12 h; 100% growth inhibition
Procedure: (§1) The minimal inhibitory concentration (MIC) was determined using a standardized dilution method according to NCSLA guidelines. Overnight colonies of Bacillus subtilis (ATCC 6633), Enterococcus faecalis (ATCC 12953), Staphylococcus aureus (ATCC29213), Streptococcus pyogenes (ATCC19615), Escherichia coli (ATCC8739), Klebsiella pneumonia (ATCC13885), Proteus mirabilis (ATCC25933), Pseudomonas aeruginosa ATCC 15442 and Salmonella typhimurium (ATCC14028) were suspended to a turbidity of 0.5 units and further diluted in Mueller-Hinton broth (MH) (Himedia - India). […] Ten microliters of each concentration was added to each corresponding well of a 96-well plate (TPP, Switzerland) and 1×10^5 bacteria in the volume of 90 µL. The plate was incubated at 37°C for 12 h.

[3] = system: Staphylococcus aureus (ATCC29213); assay: MIC determination, broth dilution; details: fragments, first figure of the cell (µM/µg.mL^−1); Mueller-Hinton broth, 37°C, 12 h; 100% growth inhibition
Procedure: as §1

[4] = system: Proteus mirabilis (ATCC25933); assay: MIC determination, broth dilution; details: fragments, first figure of the cell (µM/µg.mL^−1); Mueller-Hinton broth, 37°C, 12 h; 100% growth inhibition
Procedure: as §1

[5] = system: Enterococcus faecalis (ATCC 12953); assay: MIC determination, broth dilution; details: fragments, first figure of the cell (µM/µg.mL^−1); Mueller-Hinton broth, 37°C, 12 h; 100% growth inhibition
Procedure: as §1

[6] = system: Klebsiella pneumoniae (ATCC13885); assay: MIC determination, broth dilution; details: fragments, first figure of the cell (µM/µg.mL^−1); Mueller-Hinton broth, 37°C, 12 h; 100% growth inhibition
Procedure: as §1

[7] = system: Escherichia coli (ATCC8739); assay: MIC determination, broth dilution; details: fragments, first figure of the cell (µM/µg.mL^−1); Mueller-Hinton broth, 37°C, 12 h; 100% growth inhibition
Procedure: as §1

[8] = system: Streptococcus pyogenes (ATCC19615); assay: MIC determination, broth dilution; details: fragments, first figure of the cell (µM/µg.mL^−1); Mueller-Hinton broth, 37°C, 12 h; 100% growth inhibition
Procedure: as §1

[9] = system: Pseudomonas aeruginosa (ATCC15442); assay: MIC determination, broth dilution; details: fragments, first figure of the cell (µM/µg.mL^−1); Mueller-Hinton broth, 37°C, 12 h; 100% growth inhibition
Procedure: as §1

[10] = system: Salmonella typhimurium (ATCC14028); assay: MIC determination, broth dilution; details: fragments, first figure of the cell (µM/µg.mL^−1); Mueller-Hinton broth, 37°C, 12 h; 100% growth inhibition
Procedure: as §1

Substance	haemolysis (human erythrocytes)	Cytotoxicity, Hemolysis assay (human erythrocytes)	cell viability [1]	Cytotoxicity, MTT assay [1]	MIC [2] [µM]	MIC [3] [µM]	MIC [4] [µM]	MIC [5] [µM]	MIC [6] [µM]	MIC [7] [µM]	MIC [8] [µM]	MIC [9] [µM]	MIC [10] [µM]
KKFWEDDG-NH2 [BmLAO-f2]	less than 25%	11.32±2.9 % of control	over 78%	13.6±4.5 % of control	250	250	125	125	125	250	125	250	–
IYYPPNHNFP-NH2 [BmLAO-f3]	less than 25%	9.87±3.1 % of control	over 78%	11.2±2.1 % of control	220	220	110	110	110	220	110	220	220
IKFEPPLPPKKAH-NH2 [BmLAO-f1]	less than 25%	13.75±3.6 % of control	–	21.0±3.5 % of control	43	43	43	43	22	22	43	22	43
